Data taken from patent US10709704B2, “Treating neural disease with tyrosine kinase inhibitors” (GEORGETOWN UNIVERSITY, priority 2012, dated 2020).

Experiments:
[1] = test system: autophagic vacuoles and lysosomes; assay: Subcellular fractionation and ELISA, lentiviral Aβ1-42 mice; format: in vivo, mouse
Description: Histograms show Aβ1-42 in subcellular fractions, including autophagic vacuole-10 (AV-10; phagophores+autophagosomes), AV-20 (autophagosomes) and lysosomes. […] Brain tissues were fractionated to isolate AVs and human specific ELISA was performed to determine protein contents. […] N=5 animals per treatment.
Brain tissues were fractionated to isolate AVs and human specific ELISA was performed to determine protein contents.
(§1) 0.5 g of Frozen human or animal brains were homogenized at low speed (Cole-Palmer homogenizer, LabGen 7, 115 Vac) in 1×STEN buffer and centrifuged at 1,000 g for 10 minutes to isolate the supernatant from the pellet. The pellet was re-suspended in 1×STEN buffer and centrifuged once to increase the recovery of lysosomes. The pooled supernatants were then centrifuged at 100,000 rpm for 1 hour at 4° C. to extract the pellet containing autophagic vacuoles (AVs) and lysosomes. The pellet was then re-suspended in 10 ml (0.33 g/ml) 50% Metrizamide and 10 ml in cellulose nitrate tubes. A discontinuous Metrizamide gradient was constructed in layers from bottom to top as follows: 6 ml of pellet suspension, 10 ml of 26%; 5 ml of 24%; 5 ml of 20%; and 5 ml of 10% Metrizamide (Marzella et al., 1982). After centrifugation at 10,000 rpm for 1 hour at 4° C., the fraction floating on the 10% layer (Lysosome) and the fractions banding at the 24%/20% (AV 20) and the 20%/10% (AV10) Metrizamide inter-phases were collected by a syringe and examined.
Animal brains were homogenized at low speed (Cole-Palmer homogenizer, LabGen 7, 115 Vac) in 1×STEN buffer and centrifuged at 1,000 g for 10 minutes to isolate the supernatant from the pellet. The pellet was re-suspended in 1×STEN buffer and centrifuged once to increase the recovery of lysosomes. The pooled supernatants were then centrifuged at 100.000 rpm for 1 hour at […] to extract the pellet containing autophagic vacuoles (AVs) and lysosomes. The pellet was then re-suspended in 10 ml (0.33 g/ml) 50% Metrizamide and 10 ml in cellulose nitrate tubes. […]

[2] = test system: lentiviral Aβ1-42-injected wild type mice; assay: Morris water maze, lentiviral Aβ1-42 wild type mice; format: in vivo, mouse; details: Nilotinib
Description: All animals were pre-trained (trials) to swim for 90 seconds in a water maze containing a platform submerged in water (invisible) for 4 consecutive days once a day. The pretraining trials “teach” the swimming animals that to “escape”, they must find the hidden platform, and stay on it. The water maze “test” was performed on day 5, (40), when the platform was removed and mice have to swim and find it, thus assessing acquisition and retention. All parameters, including distance travelled to reach platform, speed to get to the platform, latency or time spent on platform, and platform entry were digitally recorded on a computer and analyzed by a blind investigator.
The Morris water maze test was performed after 4 days of training trials in which the platform was placed in the SE corner and mice were initially placed in the NW corner of the pool.

Aβ1-42 parkin−/− mice = assay: Novel object recognition, Aβ1-42 parkin−/− mice; format: in vivo, mouse; details: Aβ1-42 parkin−/− mice with or without Nilotinib
Description: Mice were placed individually in a 22×32×30 cm testing chamber for a 5 min habituation interval and returned to their home cages. Thirty minutes later mice were placed in the testing chamber for 10 min with two identical objects (acquisition session), then returned to their home cages and […] placed back in the testing chamber in the presence with one of the original objects and one novel object of the same size but of a different color and shape (recognition session). Sessions were video recorded. Time spent exploring the objects were scored by blind observer. The recognition index was calculated as (time exploring one of the objects/time exploring both objects)×100 for acquisition session, and (time exploring new object/time exploring both familiar and novel objects)×100 for the recognition session. Statistical calculations to estimate differences between sessions were performed with a pairwise t-test.
These experiments were repeated in 1 year old Tg-APP mice and age-matched control (C57BL/6).

GFP-tagged TDP-43 = assay: Distribution of GFP-tagged TDP-43 in M17 cells; format: cell-based, human; set-up: distribution of GFP-tagged TDP-43 / translocation of GFP-tagged TDP-43 with Nilotinib or Bosutinib: unit of the concentration uncertain; details: Nilotinib (10 µM) or Bosutinib (5 µM) for additional 24 hrs
Description: Human neuroblastoma M17 cells (seeding density 2×10^5 cells) were grown in 24 well dishes (Falcon) to 70% confluence in Dulbecco's Modified Eagle Medium (DMEM; Invitrogen) plus 10% (v/v) heat-inactivated fetal bovine serum (Invitrogen), penicillin/streptomycin, and 2 mM L-glutamine at 37° C. and 5% CO2, washed twice in phosphate-buffered saline (PBS). Transient transfection was performed with 3 μg parkin cDNA or 3 μg TDP-43 cDNA, or 3 μg LacZ cDNA. Cells were treated with 5 μM tubacin for 24 hours and DAPI stained in 12 well dishes. Cells were harvested 24 hours after transfection. Transfection was performed in DMEM without serum using Lipofectamine 2000 (Invitrogen) according to the manufacturer's protocol. […] Western blot was performed on NuPAGE 4-12% Bis-Tris gel (Invitrogen). Protein estimation was performed using the microscale BioRad protein assay (BioRad Laboratories Inc, Hercules, Calif., USA).
To ascertain that both parkin and HDAC6 are required for TDP-43 translocation, GFP-tagged TDP-43 was expressed in M17 neuroblastoma cells in the presence of wild type or loss-of-function mutant (T240R) parkin, and treated with 5 μM selective HDAC6 inhibitor for 24 hours.
The following data support these conclusions.

[3] = test system: autophagic vacuoles and lysosomes; assay: Subcellular fractionation (AV-10, AV-20, lysosome) and ELISA, Tg-APP mice; format: in vivo, mouse
Description: Histograms show Aβ1-42 in subcellular fractions, including autophagic vacuole-10 (AV-10; phagophores+autophagosomes), AV-20 (autophagosomes) and lysosomes. […] Brain tissues were fractionated to isolate AVs and human specific ELISA was performed to determine protein contents. N=5 animals per treatment.
as §1
as §1, with “Animal” for “0.5 g of Frozen human or animal”, “100.000” for “100,000”, “[…]” for “4°”, “Metrizamide.” for “Metrizamide (Marzella et al., 1982).”, “100,000” for “10,000”, “40 C,” for “4° C.,”

[4] = test system: molecular markers of autophagy; assay: Western blot of autophagy markers, A53T mice; format: in vivo, mouse; details: daily IP Nilotinib 3 weeks
Text: Rabbit polyclonal (1:1000) tubulin (Thermo Scientific) was used.

[5] = lentiviral Aβ1-42 mice, IP 10 mg/kg Nilotinib or 5 mg/Kg Bosutinib daily 3 weeks
[6] = IP 10 mg/kg Nilotinib or 5 mg/Kg Bosutinib daily 3 weeks

Cc1cn(-c2cc(NC(=O)c3ccc(C)c(Nc4nccc(-c5cccnc5)n4)c3)cc(C(F)(F)F)c2)cn1 [Nilotinib]
autophagic clearance of Aβ1-42 (deposition in AV-20 and lysosome) [1, 5]: enhances autophagic clearance
autophagic clearance of p-Tau ser 396 (deposition in AV-20 and lysosome) [1, 5]: enhances autophagic clearance
autophagic clearance of Aβ1-42 (deposition in AV-20 and lysosomes) ([1]; wild type or Tau−/− mice, lentiviral Aβ1-42, 10 mg/kg Nilotinib or 5 mg/Kg Bosutinib daily 3 weeks): enhances autophagic clearance
time spent in NW quadrant ([2]; Aβ1-42-injected wild type mice): back to the level observed in control mice
improved time spent in SE compared to DMSO ([2]; Aβ1-42 wild type mice): 61%
improved time spent in SE compared to control ([2]; Aβ1-42 wild type mice): 26%
number of entries into SE (platform entry) ([2]; Aβ1-42 wild type mice): reversed the number of entries back to control
novel object recognition learning (Aβ1-42 parkin−/− mice): did not learn
distribution of GFP-tagged TDP-43 (GFP-tagged TDP-43): translocation of GFP-tagged TDP-43 from nucleus (A) into the cytosol
autophagic clearance of Aβ1-40 (deposition in AV-20 and lysosome) [3, 6]: enhances autophagic clearance
autophagic clearance of Aβ1-42 (deposition in AV-20 and lysosome) [3, 6]: enhances autophagic clearance
autophagic clearance of p-Tau ser 396 (deposition in AV-20 and lysosome) [3, 6]: enhances autophagic clearance
autophagic clearance of parkin (deposition in AV-20 and lysosome) ([3]; IP 10 mg/kg Nilotinib or 5 mg/kg Bosutinib daily 3 weeks): enhances autophagic clearance
LC3-II level [4]: completely disappeared
increase in Atg-5 compared to DMSO [4]: 29%
increase in beclin-1 compared to DMSO [4]: 69%
